Results as given in patent US9012655B2, “Antimicrobial/adjuvant compounds and methods” (Denouamed, Inc., priority 2011, dated 2015).
In brackets after ≈: the same amount, converted by molar mass.

Tests used:
Experiment in all cases: MIC panel of challenge pathogens (CLSI)
Type in all cases: cell-based
[1] = tested on: Staphylococcus aureus NRS382; conditions: Staphylococcus aureus NRS382
Experimental: (§1) The inocula for each bacterial strain were prepared by picking 5-10 distinct colonies from the culture plates and suspending them in the appropriate broth as per Clinical and Laboratory Standards Institute (CLSI) guidelines M07-A8, M24-A or M11-A7 as appropriate. The inoculum was resuspended by vigorous shaking on a vortex mixer for 15 s. The turbidity was then adjusted to McFarland standard 0.5 ([…]). The inoculum was further diluted in the appropriate media for MIC tests to give a final inoculum in each well of 2-8×10^5 CFU/ml. MICs were tested in the appropriate broth in accordance with the appropriate CLSI guidelines.
(§2) A stock solution of each compound was prepared at a concentration of 1.28 g/L in DMSO. The stock was further diluted in the appropriate media to give a top starting concentration of 128 mg/L in the assay. 100 μL of the appropriate media, as per CLSI guidelines, was dispensed into each well in columns 2-12. 200 μL of the each compound solution (at 256 mg/L) was dispensed into each well in column 1. 100 μL aliquots were pipetted from column 1 wells and dispensed into column 2 with a multichannel pipette (±2% coefficient of variation) thus diluting two-fold. 100 μL samples were then pipetted from column 2 wells and dispensed into column 3. The process was repeated through to column 10. The final 100 μL of diluted drug from column 10 was then discarded. Row 11 acted as a positive control (no compound, but organisms added), Row 12 acted as a negative control (no compound, and no organisms added).
(§3) 100 μL of the appropriate inoculum suspension in the appropriate media, as per CLSI guidelines, was added to the appropriate wells. […] All plates were incubated in the dark under aerobic or anaerobic conditions at 30-37° C. for 24-48 hours, according to the appropriate CLSI guideline. Plates were read visually 24-48 hours post inoculation. Endpoints of 100% inhibition were determined (CLSI interpretation endpoints following visual examination).
(§4) MIC50, MIC80, and 100% inhibition results are reported below in μg/mL in the following Tables, indicating each compound tested against a given species and strain: […]

[2] = tested on: Staphylococcus aureus AUR131 007035; conditions: AUR131007035, Staphylococcus aureus AUR131 007035
Experimental: as §1, §2, §3, §4

[3] = tested on: Staphylococcus epidermidis NRS122; conditions: Staphylococcus epidermidis NRS122
Experimental: as §1, §2, §3, §4

[4] = tested on: Staphylococcus aureus NRS383; conditions: Staphylococcus aureus NRS383
Experimental: as §1, §2, §3, §4

[5] = tested on: Staphylococcus aureus ATCC43300; conditions: Staphylococcus aureus ATCC43300
Experimental: as §1, §2, §3, §4

[6] = tested on: Bacillus cereus NCTC6349; conditions: Bacillus cereus NCTC6349
Experimental: as §1, §2, §3, §4

[7] = tested on: Enterococcus faecium ATCC700221; conditions: Enterococcus faecium ATCC700221
Experimental: as §1, §2, §3, §4

[8] = tested on: Enterococcus faecalis ATCC51299; conditions: Enterococcus faecalis ATCC51299
Experimental: as §1, §2, §3, §4

[9] = tested on: Enterococcus faecalis ATCC29212; conditions: Enterococcus faecalis ATCC29212
Experimental: as §1, §2, §3, §4

[10] = tested on: Staphylococcus aureus EUP SAU040; conditions: EUPSAU040, Staphylococcus aureus EUP SAU040
Experimental: as §1, §2, §3, §4

[11] = tested on: Staphylococcus aureus EUP MRSA004; conditions: EUPMRSA004, Staphylococcus aureus EUP MRSA004
Experimental: as §1, §2, §3, §4

[12] = tested on: Staphylococcus aureus AUR59 7005; conditions: AUR597005, Staphylococcus aureus AUR59 7005
Experimental: as §1, §2, §3, §4

[13] = tested on: Staphylococcus aureus NRS1 (ATCC700699); conditions: Staphylococcus aureus NRS1 (ATCC700699)
Experimental: as §1, §2, §3, §4

[14] = tested on: Staphylococcus aureus AUR60 7005; conditions: AUR607005, Staphylococcus aureus AUR60 7005
Experimental: as §1, §2, §3, §4

[15] = tested on: Staphylococcus aureus EUP MRSA002; conditions: EUPMRSA002, Staphylococcus aureus EUP MRSA002
Experimental: as §1, §2, §3, §4

[16] = tested on: Staphylococcus aureus AUR58 7005; conditions: AUR587005, Staphylococcus aureus AUR58 7005
Experimental: as §1, §2, §3, §4

[17] = tested on: Staphylococcus epidermidis NRS7; conditions: Staphylococcus epidermidis NRS7
Experimental: as §1, §2, §3, §4

[18] = tested on: Staphylococcus aureus NRS2 (ATCC700698); conditions: Staphylococcus aureus NRS2 (ATCC700698)
Experimental: as §1, §2, §3, §4

[19] = tested on: Staphylococcus aureus NRS384; conditions: Staphylococcus aureus NRS384
Experimental: as §1, §2, §3, §4

## Cc1cc(Cl)ccc1-c1cc(-c2nnn[nH]2)sc1-c1ccc(Cl)cc1C [DNM0488, 5-(4,5-Bis(4-chloro-2-methylphenyl)thiophen-2-yl)-1H-tetrazole]
[1]; read-out: 100% inhibition
  MIC: 0.5 µg/mL (≈ 1.25 µM)
[1]; read-out: MIC50 (50%)
  MIC50: 0.5 µg/mL (≈ 1.25 µM)
[1]; read-out: MIC80 (80%)
  MIC80: 0.5 µg/mL (≈ 1.25 µM)
[2]; read-out: 100% inhibition
  MIC: 0.5 µg/mL (≈ 1.25 µM)
[2]; read-out: MIC50 (50%)
  MIC50: 0.5 µg/mL (≈ 1.25 µM)
[2]; read-out: MIC80 (80%)
  MIC80: 0.5 µg/mL (≈ 1.25 µM)
[3]; read-out: 100% inhibition
  MIC: 2 µg/mL (≈ 4.98 µM)
[3]; read-out: MIC50 (50%)
  MIC50: 1 µg/mL (≈ 2.49 µM)
[3]; read-out: MIC80 (80%)
  MIC80: 2 µg/mL (≈ 4.98 µM)
[4]; read-out: 100% inhibition
  MIC: 0.5 µg/mL (≈ 1.25 µM)
[4]; read-out: MIC50 (50%)
  MIC50: 0.5 µg/mL (≈ 1.25 µM)
[4]; read-out: MIC80 (80%)
  MIC80: 0.5 µg/mL (≈ 1.25 µM)
[5]; read-out: 100% inhibition
  MIC: 0.5 µg/mL (≈ 1.25 µM)
[5]; read-out: MIC50 (50%)
  MIC50: 0.5 µg/mL (≈ 1.25 µM)
[5]; read-out: MIC80 (80%)
  MIC80: 0.5 µg/mL (≈ 1.25 µM)
[6]; read-out: 100% inhibition
  MIC: ≤ 0.25 µg/mL
[6]; read-out: MIC50 (50%)
  MIC50: ≤ 0.25 µg/mL
[6]; read-out: MIC80 (80%)
  MIC80: ≤ 0.25 µg/mL
[7]; read-out: 100% inhibition
  MIC: 0.5 µg/mL (≈ 1.25 µM)
[7]; read-out: MIC50 (50%)
  MIC50: 0.25 µg/mL (≈ 0.623 µM)
[7]; read-out: MIC80 (80%)
  MIC80: 0.25 µg/mL (≈ 0.623 µM)
[8]; read-out: 100% inhibition
  MIC: 0.5 µg/mL (≈ 1.25 µM)
[8]; read-out: MIC50 (50%)
  MIC50: 0.5 µg/mL (≈ 1.25 µM)
[8]; read-out: MIC80 (80%)
  MIC80: 0.5 µg/mL (≈ 1.25 µM)
[9]; read-out: 100% inhibition
  MIC: 0.5 µg/mL (≈ 1.25 µM)
[9]; read-out: MIC50 (50%)
  MIC50: 0.5 µg/mL (≈ 1.25 µM)
[9]; read-out: MIC80 (80%)
  MIC80: 0.5 µg/mL (≈ 1.25 µM)
[10]; read-out: 100% inhibition
  MIC: 0.5 µg/mL (≈ 1.25 µM)
[10]; read-out: MIC50 (50%)
  MIC50: 0.5 µg/mL (≈ 1.25 µM)
[10]; read-out: MIC80 (80%)
  MIC80: 0.5 µg/mL (≈ 1.25 µM)
[11]; read-out: 100% inhibition
  MIC: 0.5 µg/mL (≈ 1.25 µM)
[11]; read-out: MIC50 (50%)
  MIC50: 0.5 µg/mL (≈ 1.25 µM)
[11]; read-out: MIC80 (80%)
  MIC80: 0.5 µg/mL (≈ 1.25 µM)
[12]; read-out: 100% inhibition
  MIC: 0.5 µg/mL (≈ 1.25 µM)
[12]; read-out: MIC50 (50%)
  MIC50: 0.5 µg/mL (≈ 1.25 µM)
[12]; read-out: MIC80 (80%)
  MIC80: 0.5 µg/mL (≈ 1.25 µM)
[13]; read-out: 100% inhibition
  MIC: ≤ 0.25 µg/mL
[13]; read-out: MIC50 (50%)
  MIC50: ≤ 0.25 µg/mL
[13]; read-out: MIC80 (80%)
  MIC80: ≤ 0.25 µg/mL
[14]; read-out: 100% inhibition
  MIC: 0.5 µg/mL (≈ 1.25 µM)
[14]; read-out: MIC50 (50%)
  MIC50: 0.5 µg/mL (≈ 1.25 µM)
[14]; read-out: MIC80 (80%)
  MIC80: 0.5 µg/mL (≈ 1.25 µM)
[15]; read-out: 100% inhibition
  MIC: 1 µg/mL (≈ 2.49 µM)
[15]; read-out: MIC50 (50%)
  MIC50: 0.5 µg/mL (≈ 1.25 µM)
[15]; read-out: MIC80 (80%)
  MIC80: 1 µg/mL (≈ 2.49 µM)
[16]; read-out: 100% inhibition
  MIC: 1 µg/mL (≈ 2.49 µM)
[16]; read-out: MIC50 (50%)
  MIC50: 0.5 µg/mL (≈ 1.25 µM)
[16]; read-out: MIC80 (80%)
  MIC80: 0.5 µg/mL (≈ 1.25 µM)
[17]; read-out: 100% inhibition
  MIC: 0.5 µg/mL (≈ 1.25 µM)
[17]; read-out: MIC50 (50%)
  MIC50: 0.25 µg/mL (≈ 0.623 µM)
[17]; read-out: MIC80 (80%)
  MIC80: 0.25 µg/mL (≈ 0.623 µM)
[18]; read-out: 100% inhibition
  MIC: 0.5 µg/mL (≈ 1.25 µM)
[18]; read-out: MIC50 (50%)
  MIC50: 0.5 µg/mL (≈ 1.25 µM)
[18]; read-out: MIC80 (80%)
  MIC80: 0.5 µg/mL (≈ 1.25 µM)
[19]; read-out: 100% inhibition
  MIC: 0.5 µg/mL (≈ 1.25 µM)
[19]; read-out: MIC50 (50%)
  MIC50: 0.5 µg/mL (≈ 1.25 µM)
[19]; read-out: MIC80 (80%)
  MIC80: 0.5 µg/mL (≈ 1.25 µM)
